Assay results taken from patent publication US8476064B2, “Inhibition assay method and device for detection of antibiotics” (Charm Sciences, Inc., priority 2006, dated 2013).

Legend:
B.st. spores [1] = assay: Antibiotic detection test in spiked milk, Trizma/succinate culture of Example 7 (Table 5); format: cell-based, Bacillus (Geobacillus) Stearothermophilus; conditions: for 16 hr Result / % Pos (16 hr Result): 16 hours later; for % Pos (Result) / Result: immediately after test completion
Description: A Trizma/Succinate solution was prepared by adding 2.5 grams Trizma Base and 6 grams Succinate to 100 mL of reverse osmosis/deionized water (RO/DI Water) in a 125 mL flask. 40 milligrams of BCP (see example 1 for BCP preparation) was then added to a 50 mL conical tube and 25 mL of the Trizma/Succinate solution was added to the 40 milligrams BCP and mixed.
The media was prepared by dissolving 5 grams glucose and 1 gram Mueller Hinton Broth in 100 mL RO/DI Water. 1.2 mL of a 0.01 mg/mL solution of trimethoprim in RO/DI water was added to the media. 20 mL of the BCP/Trizma/Succinate preparation was added to the media and the media was sterile filtered through a 0.45 micron filter and cooled to 4 degrees C.
0.3 grams Difco Bacto-Agar (Item #0140-01), 0.225 NaCl and 17 mL of RO/DI water was combined and mixed and heated the mixture to 95° C. The mixture was removed from the heat and allowed it to cool to 75° C. and then 6 mL media (with BCP/Tris) was added and mixed for 5 minutes. The mixture was cooled to 57° C. and 2 mL spore (concentration of 1 billion cfu/mL) was added and mixed for 5 minutes. 0.200 mL was dispensed into the bottom of each vial.
In test operation 200 microliters of various milk samples, spiked with known concentrations of antibiotics, were pipetted into vials and incubated for the prescribed time (in this test 2 hours 30 minutes) and prescribed temperature (64 degrees C.+/−2 degrees C.). Results were recorded immediately after test completion and 16 hours later. Incubation was in various Charm Inctronic I incubators. Concentrations listed are in parts per billion (ppb). 4 samples were run at each concentration except 16 negative samples were run and 2 samples each for 3 ppb pen G and amoxicillin. Abbreviations are pencillin G (PenG); sulfamethazine (SMZ); sulfadimethoxine (SDM); tylosin (TY); gentamicin (G); oxytetracycline (OT); pirlimycin (Pirl); amoxicillin (Amox); ampicillin (Amp); cloxacillin (Clox); ceftiofur sodium (Ceft); cephaprin (Ceph); tilmicosin (Til); sulfadoxine (SDN); neomycin (Neo).

B.st. spores [2] = assay: Antibiotic detection test in spiked milk, borate/succinate culture of Example 6 (Table 4); format: cell-based, Bacillus (Geobacillus) Stearothermophilus; parameters: key to Color 1 / Color 2: Color result 1 and 2 is a negative result; Color result 1 and 2 is a negative result; 3 is a borderline result; 4 and 5 is a positive result; 4 and 5 is a positive result; conditions: for % Pos (Color 2) / Color 2: after 16 hours at room temperature; for % Pos (Color 1) / Color 1: immediately after test completion
Description: BCP/Borate/Succinate Solution was prepared by adding 3.8 grams of Borate and 6 grams Succinate to 100 mL of reverse osmosis/deionized water (RO/DI Water) in 125 mL flask. 50 milligrams of BCP was added to a 50 mL conical tube and 5 mL of Borate/Succinate solution was added to the 50 milligrams BCP and mixed.
To prepare media 5 grams glucose and 1 gram Mueller Hinton Broth was dissolved in 100 mL RO/DI Water. 1.2 mL of a 0.01 mg/mL solution of trimethoprim in RO/DI Water was prepared and added to the media. A 20 mL of BCP/Borate/Succinate was added to the media and the media was sterile filtered through a 0.45 micron filter and then cooled to 4 degrees C.
Agar was prepared by combining 0.3 grams Difco Bacto-Agar (Item #0140-01), 0.225 NaCl and 17.485 RO/DI Water. The mixture was heated to 95° C. and then removed from the heat and allowed to cool to 75° C. Next 6 mL of media (prepared as described above with BCP/Tris) was added to the agar and mixed for 5 minutes. The mixture was cooled to 57° C. and 1 mL spore solution (concentration of 1 billion cfu/mL) was added and mixed together for 5 minutes. 0.200 mL was dispensed into the bottom of each of the vials.
In test operation 200 microliters of various milk sample, spiked with known concentrations of antibiotics, were pipetted into test vials and incubated for the prescribed time (in this test 2 hours 10 minutes) and prescribed temperature (64 degrees C.+/−2 degrees C.). Incubation was in the Charm I Inctronic incubator. Results were recorded immediately after test completion (Color 1) and after being left at room temperature for 16 hours (Color 2). Results listed are in parts per billion (ppb). 4 samples were run at each concentrations except for raw negative milk (16 samples) and 3 ppb pen G (2 samples) and amoxicillin (2 samples). Abbreviations are penicillin G (PenG); sulfamethazine (SMZ); sulfadimethoxine (SDM); tylosin (TY); gentamicin (G); oxytetracycline (OT); pirlimycin (Pirl); amoxicillin (Amox); ampicillin (Amp); cloxacillin (Clox); ceftiofur sodium (Ceft); cephaprin (Ceph); tilmicosin (Til); sulfadoxine (SDN); neomycin (Neo). Color result 1 and 2 is a negative result, 3 is a borderline result and 4 and 5 is a positive result.

NC[C@@H]1O[C@H](O[C@H]2[C@@H](O)[C@H](O[C@@H]3[C@@H](O)[C@H](N)C[C@H](N)[C@H]3O[C@H]3O[C@H](CN)[C@@H](O)[C@H](O)[C@H]3N)O[C@@H]2CO)[C@H](N)[C@@H](O)[C@@H]1O [Neo, neomycin]
16 hr Result (B.st. spores [1]; milk spiked at 750 ppb): Pos | % Pos (16 hr Result) (B.st. spores [1]; milk spiked at 750 ppb): 100% | % Pos (Result) (B.st. spores [1]; milk spiked at 750 ppb): 100% | Result (B.st. spores [1]; milk spiked at 750 ppb): Pos | % Pos (Color 2) (B.st. spores [2]; milk spiked at 750 ppb): 100% | Color 2 (B.st. spores [2]; milk spiked at 750 ppb): 5 | % Pos (Color 1) (B.st. spores [2]; milk spiked at 750 ppb): 100% | Color 1 (B.st. spores [2]; milk spiked at 750 ppb): 5

Cc1onc(-c2ccccc2Cl)c1C(=O)N[C@@H]1C(=O)N2[C@@H]1SC(C)(C)[C@@H]2C(=O)O [Clox, cloxacillin]
16 hr Result (B.st. spores [1]; milk spiked at 30 ppb): Pos | % Pos (16 hr Result) (B.st. spores [1]; milk spiked at 30 ppb): 100% | % Pos (Result) (B.st. spores [1]; milk spiked at 30 ppb): 100% | Result (B.st. spores [1]; milk spiked at 30 ppb): Pos | 16 hr Result (B.st. spores [1]; milk spiked at 50 ppb): Pos | % Pos (16 hr Result) (B.st. spores [1]; milk spiked at 50 ppb): 100% | % Pos (Result) (B.st. spores [1]; milk spiked at 50 ppb): 100% | Result (B.st. spores [1]; milk spiked at 50 ppb): Pos | % Pos (Color 2) (B.st. spores [2]; milk spiked at 30 ppb): 100% | Color 2 (B.st. spores [2]; milk spiked at 30 ppb): 5 | % Pos (Color 1) (B.st. spores [2]; milk spiked at 30 ppb): 100% | Color 1 (B.st. spores [2]; milk spiked at 30 ppb): 4 | % Pos (Color 2) (B.st. spores [2]; milk spiked at 50 ppb): 100% | Color 2 (B.st. spores [2]; milk spiked at 50 ppb): 5 | % Pos (Color 1) (B.st. spores [2]; milk spiked at 50 ppb): 100% | Color 1 (B.st. spores [2]; milk spiked at 50 ppb): 5

CC(=O)OCC1=C(C(=O)O)N2C(=O)[C@@H](NC(=O)CSc3ccncc3)[C@H]2SC1 [Ceph, cephaprin]
16 hr Result (B.st. spores [1]; milk spiked at 10 ppb): Pos | % Pos (16 hr Result) (B.st. spores [1]; milk spiked at 10 ppb): 100% | % Pos (Result) (B.st. spores [1]; milk spiked at 10 ppb): 100% | Result (B.st. spores [1]; milk spiked at 10 ppb): Pos | % Pos (Color 2) (B.st. spores [2]; milk spiked at 10 ppb): 100% | Color 2 (B.st. spores [2]; milk spiked at 10 ppb): 5 | % Pos (Color 1) (B.st. spores [2]; milk spiked at 10 ppb): 100% | Color 1 (B.st. spores [2]; milk spiked at 10 ppb): 5

CC[C@@H]1CCN[C@H](C(=O)N[C@@H]([C@H]2O[C@H](SC)[C@H](O)[C@@H](O)[C@H]2O)[C@H](C)Cl)C1 [Pirl, pirlimycin]
16 hr Result (B.st. spores [1]; milk spiked at 100 ppb): Pos | % Pos (16 hr Result) (B.st. spores [1]; milk spiked at 100 ppb): 100% | % Pos (Result) (B.st. spores [1]; milk spiked at 100 ppb): 100% | Result (B.st. spores [1]; milk spiked at 100 ppb): Pos | 16 hr Result (B.st. spores [1]; milk spiked at 200 ppb): Pos | % Pos (16 hr Result) (B.st. spores [1]; milk spiked at 200 ppb): 100% | % Pos (Result) (B.st. spores [1]; milk spiked at 200 ppb): 100% | Result (B.st. spores [1]; milk spiked at 200 ppb): Pos | % Pos (Color 2) (B.st. spores [2]; milk spiked at 100 ppb): 100% | Color 2 (B.st. spores [2]; milk spiked at 100 ppb): 4 | % Pos (Color 1) (B.st. spores [2]; milk spiked at 100 ppb): 100% | Color 1 (B.st. spores [2]; milk spiked at 100 ppb): 4 | % Pos (Color 2) (B.st. spores [2]; milk spiked at 200 ppb): 100% | Color 2 (B.st. spores [2]; milk spiked at 200 ppb): 5 | % Pos (Color 1) (B.st. spores [2]; milk spiked at 200 ppb): 100% | Color 1 (B.st. spores [2]; milk spiked at 200 ppb): 5

CC1(C)S[C@@H]2[C@H](NC(=O)[C@H](N)c3ccc(O)cc3)C(=O)N2[C@H]1C(=O)O [Amox, amoxicillin]
16 hr Result (B.st. spores [1]; milk spiked at 6 ppb): Pos | % Pos (16 hr Result) (B.st. spores [1]; milk spiked at 6 ppb): 100% | % Pos (Result) (B.st. spores [1]; milk spiked at 6 ppb): 100% | Result (B.st. spores [1]; milk spiked at 6 ppb): Pos | % Pos (Color 2) (B.st. spores [2]; milk spiked at 6 ppb): 100% | Color 2 (B.st. spores [2]; milk spiked at 6 ppb): 5 | % Pos (Color 1) (B.st. spores [2]; milk spiked at 6 ppb): 100% | Color 1 (B.st. spores [2]; milk spiked at 6 ppb): 5

CC[C@H]1OC(=O)C[C@@H](O)[C@H](C)[C@@H](O[C@@H]2O[C@H](C)[C@@H](O)[C@H](N(C)C)[C@H]2O)[C@@H](CCN2C[C@H](C)C[C@H](C)C2)C[C@@H](C)C(=O)/C=C/C(C)=C/[C@@H]1CO[C@@H]1O[C@H](C)[C@@H](O)[C@@H](OC)[C@H]1OC [Til, tilmicosin]
16 hr Result (B.st. spores [1]; milk spiked at 80 ppb): Pos | % Pos (16 hr Result) (B.st. spores [1]; milk spiked at 80 ppb): 100% | % Pos (Result) (B.st. spores [1]; milk spiked at 80 ppb): 100% | Result (B.st. spores [1]; milk spiked at 80 ppb): Pos | % Pos (Color 2) (B.st. spores [2]; milk spiked at 80 ppb): 100% | Color 2 (B.st. spores [2]; milk spiked at 80 ppb): 5 | % Pos (Color 1) (B.st. spores [2]; milk spiked at 80 ppb): 100% | Color 1 (B.st. spores [2]; milk spiked at 80 ppb): 5

COc1ncnc(NS(=O)(=O)c2ccc(N)cc2)c1OC [SDN, sulfadoxine]
16 hr Result (B.st. spores [1]; milk spiked at 100 ppb): Pos | % Pos (16 hr Result) (B.st. spores [1]; milk spiked at 100 ppb): 100% | % Pos (Result) (B.st. spores [1]; milk spiked at 100 ppb): 100% | Result (B.st. spores [1]; milk spiked at 100 ppb): Pos | % Pos (Color 2) (B.st. spores [2]; milk spiked at 100 ppb): 100% | Color 2 (B.st. spores [2]; milk spiked at 100 ppb): 4 | % Pos (Color 1) (B.st. spores [2]; milk spiked at 100 ppb): 100% | Color 1 (B.st. spores [2]; milk spiked at 100 ppb): 5

CC1(C)S[C@@H]2[C@H](NC(=O)[C@H](N)c3ccccc3)C(=O)N2[C@H]1C(=O)O [Amp, ampicillin]
16 hr Result (B.st. spores [1]; milk spiked at 5 ppb): Pos | % Pos (16 hr Result) (B.st. spores [1]; milk spiked at 5 ppb): 100% | % Pos (Result) (B.st. spores [1]; milk spiked at 5 ppb): 100% | Result (B.st. spores [1]; milk spiked at 5 ppb): Pos | % Pos (Color 2) (B.st. spores [2]; milk spiked at 5 ppb): 100% | Color 2 (B.st. spores [2]; milk spiked at 5 ppb): 4 | % Pos (Color 1) (B.st. spores [2]; milk spiked at 5 ppb): 100% | Color 1 (B.st. spores [2]; milk spiked at 5 ppb): 5

CO/N=C(\C(=O)N[C@@H]1C(=O)N2C(C(=O)O)=C(CSC(=O)c3ccco3)CS[C@H]12)c1csc(N)n1 [Ceft, ceftiofur sodium]
16 hr Result (B.st. spores [1]; milk spiked at 50 ppb): Pos | % Pos (16 hr Result) (B.st. spores [1]; milk spiked at 50 ppb): 100% | % Pos (Result) (B.st. spores [1]; milk spiked at 50 ppb): 100% | Result (B.st. spores [1]; milk spiked at 50 ppb): Pos | 16 hr Result (B.st. spores [1]; milk spiked at 100 ppb): Pos | % Pos (16 hr Result) (B.st. spores [1]; milk spiked at 100 ppb): 100% | % Pos (Result) (B.st. spores [1]; milk spiked at 100 ppb): 100% | Result (B.st. spores [1]; milk spiked at 100 ppb): Pos | % Pos (Color 2) (B.st. spores [2]; milk spiked at 50 ppb): 0% | Color 2 (B.st. spores [2]; milk spiked at 50 ppb): 1 | % Pos (Color 1) (B.st. spores [2]; milk spiked at 50 ppb): 0% | Color 1 (B.st. spores [2]; milk spiked at 50 ppb): 1 | % Pos (Color 2) (B.st. spores [2]; milk spiked at 100 ppb): 0% | Color 2 (B.st. spores [2]; milk spiked at 100 ppb): 2 | % Pos (Color 1) (B.st. spores [2]; milk spiked at 100 ppb): 0% | Color 1 (B.st. spores [2]; milk spiked at 100 ppb): 2
